≈ marks a conversion by molar mass, not a printed value. Like-named read-outs stand apart in the source and are kept apart here.
Assays:
Assay in all cases: microbe, parasite or virus in culture
[1] = system: C.perfingens (ATCC 1620-19); type: cell-based, Clostridium perfingens; conditions: Clostridium, read-out: Minimum Inhibitory Concentrations
C.botulinum (ATCC 19397) = type: cell-based; conditions: Clostridium botulinum
B.subtilis = type: cell-based; conditions: Bacillus subtilis, read-out: Minimum Inhibitory Concentrations
[2] = system: C.perfingens (ATCC 13124); type: cell-based, Clostridium perfingens; conditions: Clostridium, read-out: Minimum Inhibitory Concentrations
[3] = system: C. paraputrificum (ATCC 1620-23); type: cell-based; conditions: Clostridium paraputrificum, read-out: Minimum Inhibitory Concentrations
[4] = ATCC19397, pH 5, read-out: Minimum Inhibitory Concentrations
[5] = ATCC19397, pH 7, read-out: Minimum Inhibitory Concentrations

CCCCCC(=O)OCC(O)C(=O)O (stereo not shown) [R=5, 3-O-hexanoylglyceric acid]
MIC ([1]; ATCC1620, pH 5): 10 µg/mL (≈ 49 µM)
MIC ([1]; ATCC1620, pH 7): 1000 µg/mL (≈ 4900 µM)
MIC (C.botulinum (ATCC 19397); [4]): 10 µg/mL (≈ 49 µM)
MIC (C.botulinum (ATCC 19397); [5]): 100 µg/mL (≈ 490 µM)
MIC (B.subtilis; pH 5): 10 µg/mL (≈ 49 µM)
MIC (B.subtilis; pH 7): 10000 µg/mL (≈ 49000 µM)
MIC ([2]; ATCC13124, pH 5): 100 µg/mL (≈ 490 µM)
MIC ([2]; ATCC13124, pH 7): 1000 µg/mL (≈ 4900 µM)
MIC ([3]; ATCC1620, pH 5): 10 µg/mL (≈ 49 µM)
MIC ([3]; ATCC1620, pH 7): 1000 µg/mL (≈ 4900 µM)

CCCCCCCCCCCCCCCC(=O)OCC(O)C(=O)O (stereo not shown) [R=15, 3-O-hexadecanoylglyceric acid]
MIC ([1]; ATCC1620, pH 5): 100 µg/mL (≈ 290 µM)
MIC ([1]; ATCC1620, pH 7): 100 µg/mL (≈ 290 µM)
MIC (C.botulinum (ATCC 19397); [4]): 100 µg/mL (≈ 290 µM)
MIC (C.botulinum (ATCC 19397); [5]): 1000 µg/mL (≈ 2900 µM)
MIC (B.subtilis; pH 5): > 10000 µg/mL
MIC (B.subtilis; pH 7): 10000 µg/mL (≈ 29000 µM)
MIC ([2]; ATCC13124, pH 5): 10 µg/mL (≈ 29 µM)
MIC ([2]; ATCC13124, pH 7): 1000 µg/mL (≈ 2900 µM)
MIC ([3]; ATCC1620, pH 5): 10 µg/mL (≈ 29 µM)
MIC ([3]; ATCC1620, pH 7): 1000 µg/mL (≈ 2900 µM)

CCCCCCCCCC(=O)OCC(O)C(=O)O (stereo not shown) [R=9, 3-O-decanoylglyceric acid]
MIC ([1]; ATCC1620, pH 5): 10 µg/mL (≈ 38.4 µM)
MIC ([1]; ATCC1620, pH 7): 100 µg/mL (≈ 384 µM)
MIC (C.botulinum (ATCC 19397); [4]): 10 µg/mL (≈ 38.4 µM)
MIC (C.botulinum (ATCC 19397); [5]): 10 µg/mL (≈ 38.4 µM)
MIC (B.subtilis; pH 5): 10 µg/mL (≈ 38.4 µM)
MIC (B.subtilis; pH 7): 1000 µg/mL (≈ 3840 µM)
MIC ([2]; ATCC13124, pH 5): 10 µg/mL (≈ 38.4 µM)
MIC ([2]; ATCC13124, pH 7): 10 µg/mL (≈ 38.4 µM)
MIC ([3]; ATCC1620, pH 5): 10 µg/mL (≈ 38.4 µM)
MIC ([3]; ATCC1620, pH 7): 100 µg/mL (≈ 384 µM)

CCCCCCCCCCCCC(=O)OCC(O)C(=O)O (stereo not shown) [R=12, 3-O-tridecanoylglyceric acid]
MIC ([1]; ATCC1620, pH 5): 10 µg/mL (≈ 33.1 µM)
MIC ([1]; ATCC1620, pH 7): 10 µg/mL (≈ 33.1 µM)
MIC (C.botulinum (ATCC 19397); [4]): 10 µg/mL (≈ 33.1 µM)
MIC (C.botulinum (ATCC 19397); [5]): 100 µg/mL (≈ 331 µM)
MIC (B.subtilis; pH 5): 10 µg/mL (≈ 33.1 µM)
MIC (B.subtilis; pH 7): 1000 µg/mL (≈ 3310 µM)
MIC ([2]; ATCC13124, pH 5): 10 µg/mL (≈ 33.1 µM)
MIC ([2]; ATCC13124, pH 7): 100 µg/mL (≈ 331 µM)
MIC ([3]; ATCC1620, pH 5): 10 µg/mL (≈ 33.1 µM)
MIC ([3]; ATCC1620, pH 7): 100 µg/mL (≈ 331 µM)
